Source: patent US20180318311A1, “TRICYCLIC 2-QUINOLINONES AS ANTIBACTERIALS” (priority 2017, published 2018)
Values after ≈ are worked out from the molar mass of the structure shown. Where a name gives a salt, the structure may show the parent alone. Read-outs that look alike come from different tables or passages of the source.

How the values were obtained:
Type in all cases: cell-based
[1] = system: S. aureus NB01006-AVR005, gyrA (S84L), grlA (580F) and grlB (E471K); assay: microbe, parasite or virus in culture; conditions: Staphylococcus aureus, 20 h, read-out: Antibacterial activity (MIC) NB01006-AVR005
Procedure, shortened: (§1)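 MIC in μg/mL taken as the lowest concentration with no visible growth, checked by 600 nm reading after 20 h at 35°C, ambient air. Strains tested per CLSI microdilution in cation-adjusted Mueller-Hinton broth at about 5×10^5 CFU/mL, compounds as two-fold series, 1% DMSO final.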

[2] = system: E. faecalis ATCC 29212 (NB04001); assay: MIC by broth microdilution, E. faecalis NB04001; conditions: Enterococcus faecalis, ATCC29212, CAMHB, 35° C., 20 hours, read-out: Antibacterial activity (MIC) NB04001
Procedure, shortened: as §1

[3] = system: P. aeruginosa NB52019, wild-type PAO1 strain; assay: MIC by broth microdilution, P. aeruginosa NB52019; conditions: Pseudomonas aeruginosa, CAMHB, 35° C., 20 hours, read-out: Antibacterial activity (MIC) NB52019
Procedure, shortened: as §1

[4] = system: S. pneumoniae ATCC 25922 (NB07001); assay: MIC by broth microdilution, S. pneumoniae NB07001; conditions: Streptococcus pneumoniae, read-out: Antibacterial activity (MIC) NB07001
Procedure, shortened: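 CAMHB, ~5×10^5 CFU/mL, 2-fold serial dilutions (final DMSO 1%), 35° C, ambient air, 20 h. Read OD600 plus visual check; MIC = lowest conc. with no visible growth, μg/mL.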

[5] = system: S. aureus ATCC 49951 (NB01006); assay: MIC by broth microdilution, S. aureus NB01006; conditions: Staphylococcus aureus, ATCC49951, CAMHB, 35° C., 20 hours, read-out: Antibacterial activity (MIC) NB01006
Procedure, shortened: as §1

[6] = system: E. coli ATCC 25922 (NB27001); assay: MIC by broth microdilution, E. coli NB27001; conditions: Escherichia coli, ATCC25922, CAMHB, 35° C., 20 hours, read-out: Antibacterial activity (MIC) NB27001
Procedure, shortened: as §1

[7] = system: S. aureus NB01080 fluoroquinolone-resistant clinical isolate; assay: MIC by broth microdilution, S. aureus NB01080; conditions: Staphylococcus aureus, CAMHB, 35° C., 20 hours, read-out: Antibacterial activity (MIC) NB01080
Procedure, shortened: as §1

Row | Compound | MIC [1] [µg/mL] | MIC [2] [µg/mL] | MIC [3] [µg/mL] | MIC ([4]; ATCC25922, 20 h) [µg/mL] | MIC [5] [µg/mL] | MIC [6] [µg/mL] | MIC [7] [µg/mL] | MIC ([4]; ATCC25922, S. pneumoniae, CAMHB supplemented with 5% lysed horse blood, 35° C., 20 hours) [µg/mL]
1 | C[C@H]1CCOc2c(N3CC[C@@H](C4(N)CC4)C3)c(F)cc3cc(C(=O)O)c(=O)n1c23 [Example 1.24, (S)-11-((R)-3-(1-aminocyclopropyl)pyrrolidin-1-yl)-10-fluoro-4-methyl-6-oxo-3,4-dihydro-2H,6H-[1,4]oxazepino[2,3,4-ij]quinoline-7-carboxylic acid] | 1 to 32 (≈ 2.49 to 79.7 µM) | < 1 | > 32 | < 1 | < 1 | 1 to 32 (≈ 2.49 to 79.7 µM) | 1 to 32 (≈ 2.49 to 79.7 µM) | 
2 | CC1Cc2c(N3CC[C@@H]([C@H](C)N)C3)c(F)cc3cc(C(=O)O)c(=O)n1c23 (stereo partly shown) [Example 9.2] | > 32 | < 1 | > 32 | < 1 | < 1 | 1 to 32 (≈ 2.78 to 89 µM) | 1 to 32 (≈ 2.78 to 89 µM) | 
3 | C[C@@H]1Cn2c(=O)c(C(=O)O)cc3cc(F)c(N4CC[C@@H](C5(N)CC5)C4)c(c32)O1 [Example 1.22, (R)-10-((R)-3-(1-aminocyclopropyl)pyrrolidin-1-yl)-9-fluoro-2-methyl-5-oxo-2,3-dihydro-5H-[1,4]oxazino[2,3,4-ij]quinoline-6-carboxylic acid] | > 32 | 1 to 32 (≈ 2.58 to 82.6 µM) | > 32 | 1 to 32 (≈ 2.58 to 82.6 µM) | 1 to 32 (≈ 2.58 to 82.6 µM) | > 32 | 1 to 32 (≈ 2.58 to 82.6 µM) | 
4 | COC[C@H]1COc2c(N3CC[C@@H](C4(N)CC4)C3)c(F)cc3cc(C(=O)O)c(=O)n1c23.O=CO [Example 3, (S)-10-((R)-3-(1-aminocyclopropyl)pyrrolidin-1-yl)-9-fluoro-3-(methoxymethyl)-5-oxo-2,3-dihydro-5H-[1,4]oxazino[2,3,4-ij]quinoline-6-carboxylic acid formate salt] | > 32 | > 32 | > 32 |  | > 32 | > 32 | > 32 | > 32
5 | C[C@H]1COc2c(N3CC[C@@H]([C@@H](N)CF)C3)c(F)cc3cc(C(=O)O)c(=O)n1c23 [Example 1.56, (S)-10-((R)-3-((R)-1-amino-2-fluoroethyl)pyrrolidin-1-yl)-9-fluoro-3-methyl-5-oxo-2,3-dihydro-5H-[1,4]oxazino[2,3,4-ij]quinoline-6-carboxylic acid] | 1 to 32 (≈ 2.54 to 81.3 µM) | < 1 | 1 to 32 (≈ 2.54 to 81.3 µM) | < 1 | < 1 | < 1 | < 1 | 
6 | C[C@H]1COc2c(N3CCC4CCNCC4C3)c(F)cc3cc(C(=O)O)c(=O)n1c23 (single isomer, unassigned) [Example 1.29] | > 32 | > 32 | > 32 | > 32 | > 32 | > 32 | > 32 | 
7 | C[C@H]1COc2c(N3CCCC4(CCN(C)C4)C3)c(F)cc3cc(C(=O)O)c(=O)n1c23 (mixture of isomers) [Example 1.70, (3S)-9-fluoro-3-methyl-10-(2-methyl-2,7-diazaspiro[4.5]decan-7-yl)-5-oxo-2,3-dihydro-5H-[1,4]oxazino[2,3,4-ij]quinoline-6-carboxylic acid] | > 32 | > 32 | > 32 | 1 to 32 | 1 to 32 | > 32 | > 32 | 
8 | C[C@H]1COc2c(N3CC4CC4(N)C3)c(F)cc3ccc(=O)n1c23 (stereo partly drawn) [Example 6.2, (3S)-10-(1-amino-3-azabicyclo[3.1.0]hexan-3-yl)-9-fluoro-3-methyl-2,3-dihydro-5H-[1,4]oxazino[2,3,4-ij]quinolin-5-one hydrochloride salt] | 1 to 32 | 1 to 32 | > 32 | 1 to 32 | 1 to 32 | 1 to 32 | < 1 | 
9 | C[C@H]1COc2c(N3CCN(C)CC3)c(F)cc3cc(C(=O)O)c(=O)n1c23 [Example 1.4, (S)-9-fluoro-3-methyl-10-(4-methylpiperazin-1-yl)-5-oxo-2,3-dihydro-5H-[1,4]oxazino[2,3,4-ij]quinoline-6-carboxylic acid] | > 32 | > 32 | > 32 | > 32 | 1 to 32 (≈ 2.77 to 88.6 µM) | 1 to 32 (≈ 2.77 to 88.6 µM) | > 32 | 
10 | COc1c(N2C[C@@H]3CCCN[C@@H]3C2)c(F)cc2c(=O)c(C(=O)O)cn(C3CC3)c12 [MOX, moxifloxacin, reference compound] | 1 to 32 (≈ 2.49 to 79.7 µM) | < 1 | 1 to 32 (≈ 2.49 to 79.7 µM) | < 1 | < 1 | < 1 | > 32 | 
11 | C[C@H]1COc2c(N3CC4CCCC4(CN)C3)c(F)cc3cc(C(=O)O)c(=O)n1c23 (single isomer, unassigned) [Example 1.50] | 1 to 32 (≈ 2.49 to 79.7 µM) | 1 to 32 (≈ 2.49 to 79.7 µM) | > 32 | < 1 | < 1 | > 32 | 1 to 32 (≈ 2.49 to 79.7 µM) | 
12 | C[C@H]1COc2c(N3Cc4cccc(F)c4C3)c(F)cc3cc(C(=O)O)c(=O)n1c23 [Example 1.25, (S)-9-fluoro-10-(4-fluoroisoindolin-2-yl)-3-methyl-5-oxo-2,3-dihydro-5H-[1,4]oxazino[2,3,4-ij]quinoline-6-carboxylic acid] | > 32 | 1 to 32 (≈ 2.51 to 80.3 µM) | > 32 | 1 to 32 (≈ 2.51 to 80.3 µM) | < 1 | > 32 | < 1 | 
13 | C[C@H]1COc2c(N3CCC(C(C)(C)N)C3)c(F)cc3cc(C(=O)O)c(=O)n1c23 (single isomer, unassigned) [Example 1.43] | 1 to 32 (≈ 2.57 to 82.2 µM) | < 1 | > 32 | < 1 | < 1 | 1 to 32 (≈ 2.57 to 82.2 µM) | 1 to 32 (≈ 2.57 to 82.2 µM) | 
14 | C[C@H]1COc2c(N3CCCN(CC(F)F)CC3)c(F)cc3cc(C(=O)O)c(=O)n1c23 [Example 1.54, (S)-10-(4-(2,2-difluoroethyl)-1,4-diazepan-1-yl)-9-fluoro-3-methyl-5-oxo-2,3-dihydro-5H-[1,4]oxazino[2,3,4-ij]quinoline-6-carboxylic acid] | > 32 | > 32 | > 32 | > 32 | 1 to 32 (≈ 2.35 to 75.2 µM) | > 32 | > 32 | 
15 | C[C@H]1COc2c(N3Cc4cncnc4C3)c(F)cc3cc(C(=O)O)c(=O)n1c23 [Example 1.31, (S)-10-(5,7-dihydro-6H-pyrrolo[3,4-d]pyrimidin-6-yl)-9-fluoro-3-methyl-5-oxo-2,3-dihydro-5H-[1,4]oxazino[2,3,4-ij]quinoline-6-carboxylic acid] | > 32 | 1 to 32 (≈ 2.62 to 83.7 µM) | > 32 | < 1 | < 1 | 1 to 32 (≈ 2.62 to 83.7 µM) | 1 to 32 (≈ 2.62 to 83.7 µM) | 
16 | C[C@H]1COc2c(N3CC[C@@H](C4(N)CC4)C3)c(F)c(N)c3cc(C(=O)O)c(=O)n1c23 [Example 14, (S)-8-amino-10-((R)-3-(1-aminocyclopropyl)pyrrolidin-1-yl)-9-fluoro-3-methyl-5-oxo-2,3-dihydro-5H-[1,4]oxazino[2,3,4-ij]quinoline-6-carboxylic acid hydrochloride salt] | 1 to 32 | < 1 | > 32 | < 1 | < 1 | 1 to 32 | 1 to 32 | 
17 | NC1([C@@H]2CCN(c3c(F)cc4cc(C(=O)O)c(=O)n5c4c3OC[C@@H]5CF)C2)CC1 [Example 4, (R)-10-((R)-3-(1-aminocyclopropyl)pyrrolidin-1-yl)-9-fluoro-3-(fluoromethyl)-5-oxo-2,3-dihydro-5H-[1,4]oxazino[2,3,4-ij]quinoline-6-carboxylic acid] | 1 to 32 (≈ 2.47 to 78.9 µM) | 1 to 32 (≈ 2.47 to 78.9 µM) | > 32 | < 1 | < 1 | 1 to 32 (≈ 2.47 to 78.9 µM) | 1 to 32 (≈ 2.47 to 78.9 µM) | 
18 | C[C@H]1COc2c(N3CC[C@@H](C4(N)CC4)C3)c(C#N)cc3cc(C(=O)O)c(=O)n1c23 [Example 17, (S)-10-((R)-3-(1-aminocyclopropyl)pyrrolidin-1-yl)-9-cyano-3-methyl-5-oxo-2,3-dihydro-5H-[1,4]oxazino[2,3,4-ij]quinoline-6-carboxylic acid trifluoroacetate salt] | 1 to 32 | < 1 | > 32 | < 1 | < 1 | > 32 | 1 to 32 | 
19 | C[C@H]1COc2c(N3CC[C@H](O)C3)c(F)cc3cc(C(=O)O)c(=O)n1c23 [Example 1.6, (S)-9-fluoro-10-((S)-3-hydroxypyrrolidin-1-yl)-3-methyl-5-oxo-2,3-dihydro-5H-[1,4]oxazino[2,3,4-ij]quinoline-6-carboxylic acid] | > 32 | 1 to 32 (≈ 2.87 to 91.9 µM) | > 32 | 1 to 32 (≈ 2.87 to 91.9 µM) | < 1 | 1 to 32 (≈ 2.87 to 91.9 µM) | 1 to 32 (≈ 2.87 to 91.9 µM) | 
